Target: T1, kinase domain protein of RC kinase (Homo sapiens, UniProt Q56UN5)
T1 sequence (Q56UN5 1061-1324 limits assumed): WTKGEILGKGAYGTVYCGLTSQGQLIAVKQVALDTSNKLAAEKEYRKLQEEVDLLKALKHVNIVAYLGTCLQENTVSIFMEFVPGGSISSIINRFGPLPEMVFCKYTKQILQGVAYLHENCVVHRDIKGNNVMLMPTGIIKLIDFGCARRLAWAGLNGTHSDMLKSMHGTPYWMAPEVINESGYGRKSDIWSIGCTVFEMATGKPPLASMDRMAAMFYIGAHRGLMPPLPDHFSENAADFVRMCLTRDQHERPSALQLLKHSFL
Assay: Enzymatic assay for kinase inhibitory activity (Crebtide substrate, LANCE read-out)
Assay type: biochemical
Settings: compound at 1 μM
Procedure: Solutions of a test compound, Crebtide (a substrate), a kinase, and ATP were prepared using 1×MAPK Buffer (50 mM HEPES, 1 mM EGTA, […], 10 mM MgCl2, 2 mM DTT, and 0.01% Tween 20).
To each well, the test compound (1 μL) was first added (in duplicate) to reach a final concentration of 1 μM or 1×IC50 of the compound. The kinase (5 μl) was then added to each well to reach a final concentration of […] for the kinase domain or […] for the full-length domain. Each plate included a positive and negative controls in duplicate wells. Crebtide (2.5 μL) was then added to each well in duplicate to reach a final concentration of 50 nM. If the full-length kinase was used, the plates were incubated for 45 min at room temperature before proceeding further. ATP (2.5 μL) was added to each well to reach a final concentration of 1 μM for the kinase domain and 3 μM for the full-length.
After the addition of ATP, the plates were incubated for 45 min at room temperature. During the incubation, an EDTA solution (40 mM) and anti-Crebtide ([…]) were prepared. Additionally, a detection buffer stock solution was diluted ten fold before use.
After the incubation, the anti-Crebtide (5 μL) and EDTA (5 μL) were added to each well to reach their final concentrations of […] and 10 mM, respectively. The plates were allowed to develop at room temperature for 45 min. The plates were then read at 665 nm and 615 nm using Perkin Elmer Lance machine.
The biological results of inhibition of the kinase domain protein of RC kinase are summarized in Tables 2 and 3, wherein A represents at least 50% inhibition of the RC kinase activity at 1 μM; B represents no greater than 50% but at least 20% inhibition of the RC kinase activity at 1 μM; C represents no greater than 20% but at least 5% inhibition of the RC kinase activity at 1 μM; and D represents no greater than 5% inhibition of the RC kinase activity at 1 μM.

Row | Compound | Activity (inhibition of the RC kinase activity) | inhibition at 1 µM [%]
1 | N#Cc1c(NC2CCCCC2)n[nH]c1/N=C/c1ccccc1 [Compound A51] | D (no greater than 5% inhibition of the RC kinase activity at 1 μM) | –
2 | COc1ccc(Nc2n[nH]c(/N=C/c3ccc(Cl)cc3)c2C#N)cc1 [Compound A44] | D (no greater than 5% inhibition of the RC kinase activity at 1 μM) | –
3 | Cc1ncsc1/C=N/c1[nH]nc(Nc2cccc(Cl)c2)c1C(N)=O [Compound B62, 3-((3-chlorophenyl)amino)-5-(((4-methylthiazol-5-yl)methylene)amino)-1H-pyrazole-4-carboxamide] | – | ≥ 50
4 | N#Cc1c(Nc2ccc(Cl)cc2)n[nH]c1/N=C/c1ccc[nH]1 [Compound A39] | D (no greater than 5% inhibition of the RC kinase activity at 1 μM) | –
5 | NC(=O)c1c(Nc2ccc(Cl)cc2)n[nH]c1/N=C/c1ccccc1OCC(=O)O [Compound B37] | – | ≤ 5
6 | NC(=O)c1c(Nc2ccccc2)n[nH]c1/N=C/c1ccc(O)cc1 [Compound B10] | A (at least 50% inhibition of the RC kinase activity at 1 μM) | –
7 | NC(=O)c1c(Nc2cccc(Cl)c2)n[nH]c1/N=C/c1ccc([N+](=O)[O-])c(O)c1 [Compound B45] | – | 20 to 50
8 | NC(=O)c1c(Nc2cccc(Cl)c2)n[nH]c1/N=C/c1ccc(CO)o1 [Compound B84, 3-((3-chlorophenyl)amino)-5-(((5-(hydroxymethyl)furan-2-yl)methylene)amino)-1H-pyrazole-4-carboxamide] | – | ≥ 50
9 | Cc1cc(/C=N/c2[nH]nc(Nc3cccc(Cl)c3)c2C#N)no1 [Compound B100] | C (no greater than 20% but at least 5% inhibition of the RC kinase activity at 1 μM) | –
10 | CN1CCN(c2ccc(/C=N/c3[nH]nc(Nc4cccc(Cl)c4)c3C#N)cc2)CC1 [Compound A74] | C (no greater than 20% but at least 5% inhibition of the RC kinase activity at 1 μM) | –
11 | NC(=O)c1c(Nc2cccc(Cl)c2)n[nH]c1/N=C/c1ccc(Oc2nccc(C(F)(F)F)n2)cc1 [Compound B75] | – | 5 to 20
12 | NC(=O)c1c(Nc2ccc(Cl)cc2)n[nH]c1/N=C/c1ccc(C(F)(F)F)cc1 [Compound B28] | D (no greater than 5% inhibition of the RC kinase activity at 1 μM) | –
13 | NC(=O)c1c(Nc2ccccc2Cl)n[nH]c1/N=C/c1ccccc1 [Compound B115] | B (no greater than 50% but at least 20% inhibition of the RC kinase activity at 1 μM) | –
14 | COc1ccc(Nc2n[nH]c(/N=C/c3ccccc3)c2C#N)cc1 [Compound A45] | D (no greater than 5% inhibition of the RC kinase activity at 1 μM) | –
15 | NC(=O)c1c(Nc2cccc(Cl)c2)n[nH]c1/N=C/c1cc(O)ccc1O [Compound B38, 3-((3-chlorophenyl)amino)-5-((2,5-dihydroxybenzylidene)amino)-1H-pyrazole-4-carboxamide] | – | ≥ 50
16 | COc1cc(/C=N/c2[nH]nc(Nc3cccc(Cl)c3)c2C(N)=O)cc(O)c1OC [Compound B74] | – | 5 to 20
17 | Cn1nc(C(F)(F)F)c(/C=N/c2[nH]nc(Nc3cccc(Cl)c3)c2C(N)=O)c1Cl [Compound B81] | – | ≤ 5
18 | COc1cc(/C=N/c2[nH]nc(Nc3ccc(Cl)cc3)c2C(N)=O)ccc1O [Compound B32] | A (at least 50% inhibition of the RC kinase activity at 1 μM) | –
19 | COc1ccc(/C=N/c2[nH]nc(Nc3cccc(Cl)c3)c2C#N)c(C)c1C [Compound A89] | C (no greater than 20% but at least 5% inhibition of the RC kinase activity at 1 μM) | –
20 | NC(=O)c1c(Nc2cccc(Cl)c2)n[nH]c1/N=C/c1c(F)cccc1Cl [Compound B82] | D (no greater than 5% inhibition of the RC kinase activity at 1 μM) | –
21 | NC(=O)c1c(Nc2cccc(Cl)c2)n[nH]c1/N=C/c1ncc(Cl)nc1Cl [Compound B78] | – | ≤ 5
22 | NC(=O)c1c(Nc2cccc(Cl)c2)n[nH]c1/N=C/c1cc[nH]c1 [Compound B111] | – | ≥ 50
23 | N#Cc1c(Nc2ccc(Cl)c(Cl)c2)n[nH]c1/N=C/c1ccc(O)cc1O [Compound A59] | – | ≤ 5

Row | Compound | Activity (inhibition of the RC kinase activity) | inhibition at 1 µM [%]
24 | NC(=O)c1c(Nc2cccc(Cl)c2)n[nH]c1/N=C/c1ccccc1-c1cccs1 [Compound B65] | – | 20 to 50
25 | N#Cc1c(Nc2ccccc2)n[nH]c1/N=C/c1ccc(C(F)(F)F)cc1 [Compound A18] | C (no greater than 20% but at least 5% inhibition of the RC kinase activity at 1 μM) | –
26 | NC(=O)c1c(Nc2cccc(Cl)c2)n[nH]c1/N=C/C1CCNCC1 [Compound B96] | D (no greater than 5% inhibition of the RC kinase activity at 1 μM) | –
27 | NC(=O)c1c(Nc2cccc(Cl)c2)n[nH]c1/N=C/c1ccc(-c2ccc(Cl)cc2)o1 [Compound B73] | B (no greater than 50% but at least 20% inhibition of the RC kinase activity at 1 μM) | –
28 | COc1ccc(/C=N/c2[nH]nc(NC3CCCCC3)c2C#N)cc1 [Compound A50] | D (no greater than 5% inhibition of the RC kinase activity at 1 μM) | –
29 | NC(=O)c1c(Nc2cccc(Cl)c2)n[nH]c1/N=C/c1cc([N+](=O)[O-])ccc1O [Compound B51] | C (no greater than 20% but at least 5% inhibition of the RC kinase activity at 1 μM) | –
30 | NC(=O)c1c(Nc2cccc(Cl)c2)n[nH]c1/N=C/c1ccc(N2CCCC2)nc1 [Compound B66] | – | 20 to 50
31 | COc1cc(/C=N/c2[nH]nc(Nc3cccc(Cl)c3)c2C#N)ccc1O [Compound A17] | B (no greater than 50% but at least 20% inhibition of the RC kinase activity at 1 μM) | –
32 | NC(=O)c1c(Nc2cccc(Cl)c2)n[nH]c1/N=C/c1ccc(N2CCOCC2)nc1 [Compound B101] | – | 5 to 20
33 | NC(=O)c1c(Nc2cccc(Cl)c2)n[nH]c1/N=C/c1cc(F)cc2c1OCOC2 [Compound B29] | D (no greater than 5% inhibition of the RC kinase activity at 1 μM) | –
34 | NC(=O)c1c(Nc2cccc(Cl)c2)n[nH]c1/N=C/c1ncccc1F [Compound B88] | – | ≤ 5
35 | NC(=O)c1c(Nc2cccc(Cl)c2)n[nH]c1/N=C/c1cccnc1Cl [Compound B105] | C (no greater than 20% but at least 5% inhibition of the RC kinase activity at 1 μM) | –
36 | N#Cc1c(Nc2cccc(Cl)c2)n[nH]c1/N=C/c1nc(-c2ccccc2)[nH]c1Cl [Compound A72] | B (no greater than 50% but at least 20% inhibition of the RC kinase activity at 1 μM) | –
37 | NC(=O)c1c(Nc2cccc(Cl)c2)n[nH]c1/N=C/c1ccc(OCCO)cc1 [Compound B109] | – | 5 to 20
38 | NC(=O)c1c(Nc2cccc(Cl)c2)n[nH]c1/N=C/c1cccn1S(=O)(=O)c1ccccc1 [Compound B71, 3-((3-chlorophenyl)amino)-5-(((1-(phenylsulfonyl)-1H-pyrrol-2-yl)methylene)amino)-1H-pyrazole-4-carboxamide] | – | 20 to 50
39 | N#Cc1c(NC2CCCCC2)n[nH]c1/N=C/c1ccc(O)cc1 [Compound A49, 3-(cyclohexylamino)-5-((4-hydroxybenzylidene)amino)-1H-pyrazole-4-carbonitrile] | – | ≤ 5
40 | NC(=O)c1c(Nc2cccc(Cl)c2)n[nH]c1/N=C/c1nc(-c2ccccc2)[nH]c1Cl [Compound B72] | B (no greater than 50% but at least 20% inhibition of the RC kinase activity at 1 μM) | –
41 | NC(=O)c1c(Nc2cccc(Cl)c2)n[nH]c1/N=C/c1ccc(-c2ccccn2)s1 [Compound B60] | D (no greater than 5% inhibition of the RC kinase activity at 1 μM) | –
42 | Cn1c(Cl)c(/C=N/c2[nH]nc(Nc3cccc(Cl)c3)c2C(N)=O)c2ccccc21 [Compound B91] | D (no greater than 5% inhibition of the RC kinase activity at 1 μM) | –
43 | NC(=O)c1c(Nc2ccccc2)n[nH]c1/N=C/c1ccccc1 [Compound B11] | A (at least 50% inhibition of the RC kinase activity at 1 μM) | –
44 | COc1cc(/C=N/c2[nH]nc(Nc3cccc(Cl)c3)c2C(N)=O)ccc1OCc1cnc(Cl)s1 [Compound B55] | – | 5 to 20
45 | NC(=O)c1c(Nc2cccc(Cl)c2)n[nH]c1/N=C/c1ccc(-n2cnc3ccccc32)cc1 [Compound B97] | D (no greater than 5% inhibition of the RC kinase activity at 1 μM) | –
46 | NC(=O)c1c(Nc2cccc(Cl)c2)n[nH]c1/N=C/c1c(O)cccc1Cl [Compound B103] | – | 5 to 20
